{"source": "paper PMC5671392", "about": "“Optimization of an in vitro assay methodology for competitive binding of thyroidogenic xenobiotics with thyroxine on human transthyretin and albumin” (MethodsX, 2017)", "key": {"[1]": {"biological_target": "human albumin (ALB) (Homo sapiens, UniProt P02768)", "sequence (P02768 25-609)": "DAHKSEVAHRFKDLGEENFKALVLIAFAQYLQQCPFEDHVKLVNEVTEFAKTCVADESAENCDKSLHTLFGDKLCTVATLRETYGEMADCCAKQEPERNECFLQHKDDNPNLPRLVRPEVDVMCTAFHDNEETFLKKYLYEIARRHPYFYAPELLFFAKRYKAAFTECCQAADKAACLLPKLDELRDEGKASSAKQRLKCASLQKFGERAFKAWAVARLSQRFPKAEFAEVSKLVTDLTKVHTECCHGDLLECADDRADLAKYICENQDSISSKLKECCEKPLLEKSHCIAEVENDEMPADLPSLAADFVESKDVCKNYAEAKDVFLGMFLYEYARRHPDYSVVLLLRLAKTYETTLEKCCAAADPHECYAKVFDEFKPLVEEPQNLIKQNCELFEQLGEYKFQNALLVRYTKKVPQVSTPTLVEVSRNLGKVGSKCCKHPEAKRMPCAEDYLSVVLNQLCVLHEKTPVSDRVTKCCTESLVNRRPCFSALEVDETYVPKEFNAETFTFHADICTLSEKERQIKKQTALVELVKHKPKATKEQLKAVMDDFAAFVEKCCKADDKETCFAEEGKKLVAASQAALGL", "assay": "Competitive T4 radio-ligand (125I-T4) binding assay with human albumin", "conditions": "600 nM ALB", "description": "(§1) The entire assay takes two days to complete for each batch of samples to be processed. The Day 1 procedure is described as follows. […] First, thaw the working solutions of these components to room temperature if they have been placed in frozen storage. For the protein working solutions, prepare the day they are to be used based on the number of assay aliquots required (one vial is sufficient for approximately 45 assay samples). […] Label a series of polypropylene test tubes corresponding to the samples being prepared. This should include triplicate samples for each ligand competitor concentration.\n(§2) The following steps describe the order of pipetting components for assay incubation mixtures. • 1. […] Continue for each increasing concentration of the ligand. Control samples receive 5 μL of DMSO in place of a competitor ligand. • 2. […] Centrifuge the samples at 300 × g for 30 s to force the solution to the bottom of the tube. • 4. Measure the initial radioactivity on the gamma counter. […]\n(§3) Label a series of clean test tubes corresponding to the samples prepared on Day 1 and repeat these labels on Bio-Spin® columns. Work on one replicate set at a time, leaving the remaining columns and incubation mixtures in the fridge until ready for processing. […] Measure the radioactivity of the eluate fraction, as well as the residual radioactivity in the incubation tubes containing the discarded pipette tips. […]"}, "[2]": {"biological_target": "human transthyretin (TTR) (Homo sapiens, UniProt P02766)", "assay": "Competitive T4 radio-ligand (125I-T4) binding assay with human transthyretin", "conditions": "30 nM TTR", "description": "as §1, §2, §3"}, "[3]": {"tested_on": "human TTR isolated from human plasma", "design": "method as in PMID 19033396", "conditions": "in vitro; cited from earlier work"}}, "data": [{"smiles": "Oc1cc(Br)c(Oc2ccc(Br)cc2Br)cc1Br", "note": "[4-OH-BDE-49, 4′-hydroxy-2,2′,4,5′-tetrabromodiphenyl ether]", "values": [{"measurement": "IC50", "setting": "[1]; read-out: IC50, T4-ALB competitive binding, 55 nM T4 + 125I-T4, overnight at 4 °C, Tris-EDTA pH 8.0, 6 replicates", "result": 1.15, "unit": "nM"}, {"measurement": "Ki", "setting": "[1]; read-out: Ki, T4-ALB competitive binding, calculated from IC50 after Cheng and Prusoff, unit inferred", "result": 1.08, "unit": "nM"}, {"measurement": "IC50", "setting": "[2]; read-out: IC50, T4-TTR competitive binding, 55 nM T4 + 125I-T4, overnight at 4 °C, Tris-EDTA pH 8.0, 6 replicates", "result": 12.2, "unit": "nM"}, {"measurement": "Ki", "setting": "[2]; read-out: Ki, T4-TTR competitive binding, calculated from IC50 after Cheng and Prusoff, unit inferred", "result": 12.2, "unit": "nM"}, {"measurement": "Binding affinity for human TTR compared with T4", "setting": "[3]", "result": "higher affinity than T4"}]}]}
